± gives the expanded uncertainty stated by the source.
Tests used:
[1] = Molar enthalpy of transition or fusion; conditions: Crystal; DSC
[2] = Crystal; for vapor or sublimation pressure: Transpiration method; for Normal melting temperature: DTA

N#Cc1ccc(NS(=O)(=O)c2ccc(N)cc2)cc1 [4-amino-N-(4-cyanophenyl)benzenesulfonamide]
Conditions | Molar enthalpy of transition or fusion [kcal/mol] | Normal melting temperature [°C]
[1] | 7.39 ± 0.287 | –
[2] | – | 178.4 ± 0.5

[2]
Conditions | vapor or sublimation pressure [kPa]
420.15 K | 6.74e-06 ± 1.4e-06
420.95 K | 7.23e-06 ± 1.5e-06
421.35 K | 7.91e-06 ± 1.6e-06
424.75 K | 1.13e-05 ± 2.3e-06
426.55 K | 1.36e-05 ± 2.8e-06
428.35 K | 1.66e-05 ± 3.4e-06
429.65 K | 1.94e-05 ± 4e-06
431.35 K | 2.11e-05 ± 4.3e-06
431.75 K | 2.28e-05 ± 4.6e-06
432.35 K | 2.33e-05 ± 4.7e-06
433.05 K | 2.63e-05 ± 5.4e-06
434.75 K | 3.17e-05 ± 6.5e-06
435.75 K | 3.58e-05 ± 7.3e-06
437.15 K | 4.24e-05 ± 8.6e-06
437.55 K | 4.37e-05 ± 8.9e-06

Nc1ccc(S(=O)(=O)Nc2ccc([N+](=O)[O-])cc2)cc1 [4-amino-N-(4-nitrophenyl)benzenesulfonamide]
Conditions | Molar enthalpy of transition or fusion [kcal/mol] | Normal melting temperature [°C]
[1] | 6.67 ± 0.287 | –
[2] | – | 165.8 ± 0.5

[2]
Conditions | vapor or sublimation pressure [kPa]
405.55 K | 1.5e-06 ± 3.2e-07
409.45 K | 2.18e-06 ± 4.6e-07
412.85 K | 2.3e-06 ± 4.8e-07
415.15 K | 3.41e-06 ± 7.1e-07
417.25 K | 4.01e-06 ± 8.3e-07
418.75 K | 4.34e-06 ± 9e-07
420.05 K | 5.46e-06 ± 1.1e-06
421.55 K | 5.63e-06 ± 1.2e-06
423.25 K | 6.16e-06 ± 1.3e-06
424.65 K | 7.3e-06 ± 1.5e-06
426.25 K | 8.92e-06 ± 1.8e-06
428.75 K | 1.05e-05 ± 2.1e-06
431.35 K | 1.28e-05 ± 2.6e-06
432.05 K | 1.41e-05 ± 2.9e-06
435.15 K | 1.81e-05 ± 3.7e-06
438.25 K | 2.28e-05 ± 4.6e-06

O=[N+]([O-])c1ccc(NS(=O)(=O)c2ccccc2)cc1 [N-(4-nitrophenyl)benzenesulfonamide]
Conditions | Molar enthalpy of transition or fusion [kcal/mol] | Normal melting temperature [°C]
[1] | 6.86 ± 0.287 | –
[2] | – | 138.2 ± 0.5

[2]
Conditions | vapor or sublimation pressure [kPa]
380.15 K | 9.47e-06 ± 1.9e-06
384.15 K | 1.55e-05 ± 3.2e-06
385.15 K | 1.72e-05 ± 3.5e-06
387.15 K | 2.09e-05 ± 4.3e-06
390.15 K | 2.84e-05 ± 5.8e-06
391.15 K | 3.17e-05 ± 6.5e-06
392.15 K | 3.47e-05 ± 7.1e-06
393.15 K | 3.88e-05 ± 7.9e-06
394.15 K | 4.04e-05 ± 8.2e-06
395.15 K | 4.64e-05 ± 9.4e-06
396.65 K | 5.13e-05 ± 1e-05
401.15 K | 8.37e-05 ± 1.7e-05
401.65 K | 8.63e-05 ± 1.7e-05

From the NIST ThermoML archive (doi:10.1016/j.jct.2010.12.007)
